Experimental data published in ChEMBL document CHEMBL3271950, “2,3-Dihydroxyphenethanolamine as an adrenergic agent” (J Med Chem, 1976).
Values belong to the compound of their own block, whether it stands above or below them. Activity calls are given as the source filed them. The rule behind the calls is not given here.

Columns and labels:
[1] = Metal chelating activity of the compound assessed as Cu2+ complex formation at 1 x 10' -3 M by spectrometry; assay type: physicochemical; conditions: 1000 µM
[2] = tested on: Rattus norvegicus; experiment: Increase blood pressure in rat at 100 mg/kg; assay type: functional, organism-based; parameters: dose 100 mg/kg
[3] = target: T1, Catechol O-methyltransferase (Homo sapiens) (UniProt P21964); experiment: Activity of catechol-O-methyltransferase (unknown origin)
T1 sequence (whole entry): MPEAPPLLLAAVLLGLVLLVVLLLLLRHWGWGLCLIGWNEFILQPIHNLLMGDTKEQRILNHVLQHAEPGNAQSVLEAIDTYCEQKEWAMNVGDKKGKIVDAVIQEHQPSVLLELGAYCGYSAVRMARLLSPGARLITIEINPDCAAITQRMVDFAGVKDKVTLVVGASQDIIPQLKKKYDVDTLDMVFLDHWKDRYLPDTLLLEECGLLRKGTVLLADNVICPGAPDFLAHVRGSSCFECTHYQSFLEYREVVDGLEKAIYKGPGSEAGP

[4] = species on record: Rattus norvegicus; experiment: Potentiation of l-norepinephrine-induced adrenergic receptor activity in rat vas deferens assessed as contraction; assay type: tissue-based
[5] = species on record: Rattus norvegicus; experiment: Agonist activity at adrenergic receptor in rat vas deferens at 13 ug/ml; assay type: tissue-based
[6] = target: T1, Catechol O-methyltransferase (Homo sapiens); experiment: Inhibition of catechol-O-methyltransferase (unknown origin)-mediated l-norepinephrine methylation; conditions: concentration not given here
[7] = tested on: Rattus norvegicus; experiment: Increase blood pressure in rat at 1 mg/kg; assay type: functional, organism-based; parameters: dose 1 mg/kg
[8] = species on record: Rattus norvegicus; experiment: Agonist activity at adrenergic receptor in rat vas deferens at 0.165 ug/ml; assay type: tissue-based
[9] = tested on: Rattus norvegicus; experiment: Decrease in blood pressure in rat at 0.150 mg/kg; assay type: functional, organism-based; parameters: dose 0.15 mg/kg
[10] = tested on: Rattus norvegicus; experiment: Decrease in blood pressure in rat at 120 mg/kg; assay type: functional, organism-based; parameters: dose 120 mg/kg

Structure (SMILES): Br.NCC(O)c1cccc(O)c1O (configuration not stated)
- Activity [1]: Active
- Activity [2]: Active
- Activity [3]: < 5%
- Activity [4]: Active
- Activity [5]: Active
- inhibition [6]: 25%

- Activity [1]: Active
Structure (SMILES): Br.NC[C@H](O)c1ccc(O)c(O)c1

- Activity [8]: Active
Structure (SMILES): NC[C@@H](O)c1ccc(O)c(O)c1
- Activity [7]: Active

Structure (SMILES): Oc1ccccc1O [CATECHOL]
- Activity [1]: Active

Structure (SMILES): CC(C)NCC(O)c1ccc(O)c(O)c1 (racemic)
- Activity [9]: Active

Structure (SMILES): CC(C)NCC(O)c1cccc(O)c1O (configuration not stated)
- Activity [10]: Active
